The text below walks through data of patent US8361988B2, “Nucleoside and nucleotide analogues with quaternary carbon centers and methods of use” (Institut de Recherches Cliniques de Montreal, priority 2007, dated 2013).

Data set [1] is described as follows: in vitro. As to conditions: human, NCI H2052 cells.
A short description of data set [2]: MTT cell proliferation assay, ZR-75-1. Type of data set: cell-based. To be noted: human, ZR-75-1 cells, concentration causing 50% cell death of initial cell count over 24 hours, 1% DMSO. How it is done: (§1) The antitumor activities of the compounds of the invention were evaluated by a cellular proliferation assay. The MTT [3-(4,5-dimethylthiazol-2-yl)-2,5-diphenyltetrazolium bromide] cell proliferation assay, first described by Mosmann (Mosmann T., “Rapid colorimetric assay for cellular growth and survival: application to proliferation and cytotoxicity assays,” J. Immunol. Methods 1983 Dec. 16; 65(1-2):55-63, and incorporated by reference in its entirety) is based on the ability of active mitochondrial reductase enzymes from viable cells to cleave the tetrazolium rings of the pale yellow MTT. The cleavage reaction form a purple formazan crystals which is largely impermeable to cell membranes resulting in its accumulation within healthy cells. Solubilisation of the cells by addition of a detergent liberates and solubilizes the formazan crystals. The number of surviving cells is directly proportional to the level of the formazan product created. The color can then be quantified spectrophotometrically. The production of purple formazan in cells treated with a compound is measured relative to the production in control cells, and dose-response curves can be generated. This assay measures the cell proliferation rate and conversely, when metabolic events lead to apoptosis or necrosis, the reduction in cell viability, thus also allowing the evaluation of the cytotoxicity of the analogues synthesized in the laboratory.
(§2) For Tables 3 and 4, the assays were performed with 1% DMSO. The abbreviation “n.d.” means “not determined.” The values EC50, CC50, and SI have the following definitions.
(§3) Cell growth equals total cell count without any inhibitor after 72 hours minus initial cell count. Total cell counts after 72 hrs of growth range from 230 to 346% of initial cell counts depending on the cell line.
(§4) Total cell counts after 24 hrs of growth range from 103 to 109% of initial cell counts depending on the cell line.
(§5) SI: Selectivity Index is the ratio CC50/EC50.
On the technique in general: Formazan colour is commonly taken as a measure of viable cells.

A further data set concerns ZR-75-1. Nature of the data set: MTT cell proliferation assay, ZR-75-1. It counts as cell-based. To be noted: Homo sapiens, ZR-75-1, 72 h, concentration reducing cell growth by 50% after 72 hours, 1% DMSO. How it is done:
as §1, §2, §3, §4, §5

The test system of a further data set is PFSK-1. Nature of the data set: MTT cell proliferation assay, PFSK-1. It counts as cell-based. To be noted: Homo sapiens, PFSK-1, 72 h, concentration reducing cell growth by 50% after 72 hours, 1% DMSO. How it is done: (§6) The antitumor activities of the compounds of the invention were evaluated by a cellular proliferation assay. […] The cleavage reaction form a purple formazan crystals which is largely impermeable to cell membranes resulting in its accumulation within healthy cells. Solubilisation of the cells by addition of a detergent liberates and solubilizes the formazan crystals. The number of surviving cells is directly proportional to the level of the formazan product created. The color can then be quantified spectrophotometrically. The production of purple formazan in cells treated with a compound is measured relative to the production in control cells, and dose-response curves can be generated. This assay measures the cell proliferation rate and conversely, when metabolic events lead to apoptosis or necrosis, the reduction in cell viability, thus also allowing the evaluation of the cytotoxicity of the analogues synthesized in the laboratory.
as §2
(§7) Cell growth equals total cell count without any inhibitor after 72 hours minus initial cell count.
as §5

Data set [3] can be described thus: MTT cell proliferation assay, PFSK-1. It counts as cell-based. As to conditions: human, PFSK-1 cells, concentration causing 50% cell death of initial cell count over 24 hours, 1% DMSO. How it is done: as §6, §2, §7, §5
Data set [4] is described as follows: in vitro. As to conditions: human, NCI H1395 cells.
Data set [5] in a line: in vitro. As to conditions: human, MOLT-4 cells.
The target of data set [6] is Thermotoga maritima thymidine kinase (Thermotoga maritima, UniProt Q9WYN2). Nature of the data set: Phosphorylation assay (spectrophotometric coupled-enzyme), T. maritima TK. Type of data set: biochemical. As to conditions: substrate at 100 μM, 37° C., 1 mM ATP, triplicate. How it is done:
Compounds of the invention were also tested in a phosphorylation assay using three deoxynucleoside kinases. The kinases include human dCK, which is responsible for the activation of numerous nucleoside analog prodrugs; Drosophila melanogaster dNK, which is the fastest known kinases with the broadest substrate specificity profile; and Thermotoga maritima thymidine kinase, which is a good surrogate for human thymidine kinase 1, a member of the distinct type II kinase subfamily. The compounds were at substrate concentration of 100 μM.
Kinetic assay. Substrate phosphorylation was determined using a spectrophotometric coupled-enzyme assay (Munch-Petersen et al. (2000) J. Biol. Chem. vol. 275p. 66′73-66′79; Schelling et al. (2001) Anal. Biochem vol. 295 p. 82-8′7). Briefly, the individual nucleosides at 100 μM were prepared in reaction buffer containing 50 mM Tris-HCl (pH 7.5), 0.1 M KCl, 5 mM MgCl2, 1 mM DTT, 1 mM ATP, 0.21 mM phosphoenolpyruvate, 0.18 mM NADH, and 2 units/ml pyruvate kinase and 2 units/ml lactate dehydrogenase (Roche Biochemicals, Indianapolis, Ind.). Assays were performed at 37° C. by measuring the absorbance change at 340 nm. The enzyme amount was adjusted to limit NADH turnover to 10% over the time of the experiment. All experiments were performed in triplicate.

The target of data set [7] is T1, Drosophila melanogaster dNK (Drosophila melanogaster, UniProt Q9XZT6).
T1 sequence (Q9XZT6 1-250): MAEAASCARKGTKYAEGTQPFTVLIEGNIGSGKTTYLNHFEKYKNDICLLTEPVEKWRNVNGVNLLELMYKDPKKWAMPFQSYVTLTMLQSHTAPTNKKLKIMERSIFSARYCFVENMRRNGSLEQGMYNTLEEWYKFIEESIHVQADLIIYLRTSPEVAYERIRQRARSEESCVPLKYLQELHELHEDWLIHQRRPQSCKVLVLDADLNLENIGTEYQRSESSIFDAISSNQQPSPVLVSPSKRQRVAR
Nature of the data set: Phosphorylation assay (spectrophotometric coupled-enzyme), D. melanogaster dNK. It counts as biochemical. To be noted: substrate at 100 μM, 37° C., 1 mM ATP, triplicate. How it is done: Compounds of the invention were also tested in a phosphorylation assay using three deoxynucleoside kinases. […] The compounds were at substrate concentration of 100 μM.
Kinetic assay. […] Briefly, the individual nucleosides at 100 μM were prepared in reaction buffer containing 50 mM Tris-HCl (pH 7.5), 0.1 M KCl, 5 mM MgCl2, 1 mM DTT, 1 mM ATP, 0.21 mM phosphoenolpyruvate, 0.18 mM NADH, and 2 units/ml pyruvate kinase and 2 units/ml lactate dehydrogenase (Roche Biochemicals, Indianapolis, Ind.). Assays were performed at 37° C. by measuring the absorbance change at 340 nm. The enzyme amount was adjusted to limit NADH turnover to 10% over the time of the experiment. All experiments were performed in triplicate.

Thermotoga maritima thymidine kinase, sequence (Q9WYN2 whole entry): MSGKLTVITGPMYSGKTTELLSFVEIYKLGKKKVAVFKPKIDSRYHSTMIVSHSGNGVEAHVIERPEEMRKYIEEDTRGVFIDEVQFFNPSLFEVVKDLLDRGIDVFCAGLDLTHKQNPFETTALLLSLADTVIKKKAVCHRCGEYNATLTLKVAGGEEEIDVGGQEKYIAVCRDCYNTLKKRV

Consider `CC1(C(N)=O)CC(n2cc(F)c(N)nc2=O)O[C@@H]1CO` (mixture of isomers) [LCB-1030], for which the CC50 at 24 h (in “in vitro [1]”; in [2]; in data set [3]; in “in vitro [4]”; in the data set “in vitro [5]”) was above 500 µM throughout. Further, the EC50 with ZR-75-1 and with PFSK-1 was above 500 µM in each case.
For `COC(=O)C1(C)C[C@@H](n2cc(C)c(=O)[nH]c2=O)O[C@@H]1CO` (mixture of isomers) [LCB-1001], the CC50 at 24 h in “in vitro [1]” is 295 µM; in [2], above 500 µM; in data set [3] it was above 500 µM; in the data set “in vitro [4]”, above 500 µM. Further, the EC50 with ZR-75-1 and with PFSK-1 was above 500 µM throughout. For the same compound, the “T. maritima TK substrate phosphorylation” value in data set [6] is <1 10^−3 μmol/min mg. In addition, the “D. melanogaster dNK substrate phosphorylation” value in data set [7] is listed as <0.1 10^6 μmol/min mg.
Turning to `Cc1cn([C@H]2CC(C)(CO)[C@@H](CO)O2)c(=O)[nH]c1=O` (mixture of isomers) [LCB-1032, (±) 1-(-4,5-bis(hydroxymethyl)-4-methyltetrahydrofuran-2-yl)-5-methylpyrimidine-2,4(1H,3H)-dione], the CC50 at 24 h in “in vitro [5]” is above 500 µM.
For the compound `Cc1cn([C@H]2CC(C)(CO)[C@@H](CO)O2)c(=O)[nH]c1=O` (mixture of isomers) [LCB-1007], the CC50 at 24 h (in the data set “in vitro [1]”; in data set [2]; in [3]; in the data set “in vitro [4]”) was above 500 µM in each case. The EC50 in the data set with ZR-75-1 is 460 µM; in the data set on PFSK-1, above 500 µM. Further, the “T. maritima TK substrate phosphorylation” value in data set [6] is recorded as 2.2 10^−3 μmol/min mg. For the same compound, the “D. melanogaster dNK substrate phosphorylation” value in data set [7] (listed as LCB-1007-1) is reported as 0.84 10^6 μmol/min mg.
Consider `COC(=O)C1(C)C[C@@H](n2ccc(=O)[nH]c2=O)O[C@@H]1CO` (mixture of isomers) [LCB-1002], for which the CC50 at 24 h is 423 µM in the data set “in vitro [1]”, above 500 µM in data set [2], above 500 µM in data set [3] and 493 µM in “in vitro [4]”. In addition, the EC50 in the data set on ZR-75-1 and in the data set on PFSK-1 was above 500 µM each time. Also, the “T. maritima TK substrate phosphorylation” value in [6] is reported as 2.2 10^−3 μmol/min mg. The “D. melanogaster dNK substrate phosphorylation” value in data set [7] is given as <0.1 10^6 μmol/min mg.
As to `C[C@@]12CC(n3ccc(N)nc3=O)O[C@@H]1COC2=O` (mixture of isomers) [LCB-1029], the CC50 at 24 h (in the data set “in vitro [1]”; in data set [2]; in data set [3]; in the data set “in vitro [4]”; in the data set “in vitro [5]”) was above 500 µM throughout. Further, the 50% effective concentration (EC50) in the data set on ZR-75-1 and in the data set on PFSK-1 was above 500 µM each time.
As for `COC(=O)C1(C)C[C@H](n2cc(F)c(=O)[nH]c2=O)O[C@@H]1CO` (mixture of isomers) [LCB-1022, 5-(5-Fluoro-2,4-dioxo-3,4-dihydro-2H-pyrimidin-1-yl)-2-hydroxymethyl-3-methyl-tetrahydro-furan-3-carboxylic acid methyl ester], the “T. maritima TK substrate phosphorylation” value in data set [6] (listed as LCB-1022-1) was 3 10^−3 μmol/min mg. Moreover, the “D. melanogaster dNK substrate phosphorylation” value in [7] (listed as LCB-1022-1) is 1.88 10^6 μmol/min mg. Also, in the data set “in vitro [5]”, the CC50 at 24 h was above 500 µM.
Turning to `COC(=O)C1(C)C[C@H](n2ccc(=O)[nH]c2=O)O[C@@H]1CO` (mixture of isomers) [LCB-1005], the CC50 at 24 h (in the data set “in vitro [1]”; in data set [2]; in data set [3]; in the data set “in vitro [4]”) was above 500 µM each time. The EC50 in the data set with ZR-75-1 and with PFSK-1 was above 500 µM throughout. In addition, in [6], the “T. maritima TK substrate phosphorylation” value is recorded as <1 10^−3 μmol/min mg. Moreover, in data set [7], the “D. melanogaster dNK substrate phosphorylation” value is <0.1 10^6 μmol/min mg.
Turning to `C[C@@]12CC(n3cc(F)c(N)nc3=O)O[C@@H]1COC2=O` (mixture of isomers) [LCB-1028], the CC50 at 24 h (in the data set “in vitro [1]”; in data set [2]; in data set [3]; in the data set “in vitro [4]”; in the data set “in vitro [5]”) was above 500 µM in each case. The EC50 in the data set on ZR-75-1 and with PFSK-1 was above 500 µM throughout.
With `CC1(CO)C[C@H](n2ccc(=O)[nH]c2=O)O[C@@H]1CO` (mixture of isomers) [LCB-1006], the CC50 at 24 h (in the data set “in vitro [1]”; in data set [2]; in data set [3]; in “in vitro [4]”) was above 500 µM throughout. Further, the EC50 in the data set with ZR-75-1 and with PFSK-1 was above 500 µM throughout. Further, the “T. maritima TK substrate phosphorylation” value in data set [6] is recorded as 2.7 10^−3 μmol/min mg. Moreover, in [7], the “D. melanogaster dNK substrate phosphorylation” value is 0.22 10^6 μmol/min mg.
Turning to `CC1(CO)C[C@@H](n2ccc(=O)[nH]c2=O)O[C@@H]1CO` (mixture of isomers) [LCB-1008], the CC50 at 24 h (in the data set “in vitro [1]”; in [2]; in data set [3]; in “in vitro [4]”) was above 500 µM in each case. For the same compound, the concentration giving a half-maximal response (EC50) in the data set on ZR-75-1 and in the data set with PFSK-1 was above 500 µM each time. Also, the “T. maritima TK substrate phosphorylation” value in [6] is <1 10^−3 μmol/min mg. Moreover, in [7], the “D. melanogaster dNK substrate phosphorylation” value is recorded as 0.36 10^6 μmol/min mg.
Consider `Cc1cn([C@@H]2CC(C)(CO)[C@@H](CO)O2)c(=O)[nH]c1=O` (mixture of isomers) [LCB-1004], for which the 50% cytotoxic concentration (CC50) at 24 h (in “in vitro [1]”; in data set [2]; in data set [3]; in the data set “in vitro [4]”) was above 500 µM in each case. Also, the EC50 with ZR-75-1 was 420 µM; with PFSK-1, above 500 µM. Further, the “T. maritima TK substrate phosphorylation” value in data set [6] (listed as LCB-1004-1) is listed as 4.1 10^−3 μmol/min mg. The “D. melanogaster dNK substrate phosphorylation” value in data set [7] (listed as LCB-1004-1) was 4.2 10^6 μmol/min mg.

Broadly, the CC50 is the concentration giving 50% cytotoxicity. Broadly, the EC50 is the concentration at which the effect is half-maximal. Lower therefore signals an effect from little substance.
